In patent publication US8399676B2, “Piperidine derivatives” (Hoffman-La Roche Inc., priority 2009, dated 2013) one finds IC50 data, which are given here for 20 molecules.

Broadly, the IC50 is the point on the concentration scale where inhibition reaches its midpoint.

Where a name gives a salt, the structure may show the parent alone.

The target of this test is T1, human HSL (Homo sapiens, UniProt Q05469).
T1 construct: generate a full length human HSL ORF with a 3′-His6 tag; His6 (C); made in house; host or cells: High 5 insect cells (baculovirus, pFast-BAC)
T1 sequence (Q05469 1-1076): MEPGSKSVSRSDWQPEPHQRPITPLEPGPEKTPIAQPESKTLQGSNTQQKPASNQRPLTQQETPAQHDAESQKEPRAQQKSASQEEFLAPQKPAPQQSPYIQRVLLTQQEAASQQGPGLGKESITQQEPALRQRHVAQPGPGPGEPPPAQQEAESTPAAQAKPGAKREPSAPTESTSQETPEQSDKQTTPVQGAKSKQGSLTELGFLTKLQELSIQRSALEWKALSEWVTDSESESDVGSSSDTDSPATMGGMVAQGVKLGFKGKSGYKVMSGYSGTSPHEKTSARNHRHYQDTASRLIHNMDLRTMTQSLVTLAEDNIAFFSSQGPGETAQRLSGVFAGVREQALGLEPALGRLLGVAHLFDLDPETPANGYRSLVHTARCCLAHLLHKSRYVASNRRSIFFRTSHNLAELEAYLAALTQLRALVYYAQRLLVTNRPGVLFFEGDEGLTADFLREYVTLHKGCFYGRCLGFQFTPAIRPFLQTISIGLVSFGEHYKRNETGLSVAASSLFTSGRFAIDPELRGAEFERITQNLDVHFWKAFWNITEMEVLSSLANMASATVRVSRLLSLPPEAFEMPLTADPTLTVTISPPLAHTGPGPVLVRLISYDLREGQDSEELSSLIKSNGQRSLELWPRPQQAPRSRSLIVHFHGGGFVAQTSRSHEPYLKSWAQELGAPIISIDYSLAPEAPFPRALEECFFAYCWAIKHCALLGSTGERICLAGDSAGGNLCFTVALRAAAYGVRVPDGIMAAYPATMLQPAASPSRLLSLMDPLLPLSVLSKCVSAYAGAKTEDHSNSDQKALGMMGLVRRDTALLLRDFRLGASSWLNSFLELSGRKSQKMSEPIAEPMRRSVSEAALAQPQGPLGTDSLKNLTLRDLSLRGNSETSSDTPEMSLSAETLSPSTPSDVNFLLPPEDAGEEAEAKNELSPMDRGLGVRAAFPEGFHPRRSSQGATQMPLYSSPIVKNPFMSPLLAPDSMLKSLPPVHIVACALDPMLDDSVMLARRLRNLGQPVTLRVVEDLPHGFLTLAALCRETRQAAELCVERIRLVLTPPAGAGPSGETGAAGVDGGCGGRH
As to the kind of experiment: Human Hormone-Sensitive Lipase (HSL) enzyme inhibition assay (colorimetric, DMPT substrate). It counts as biochemical. Conditions: read-out: HSL hum IC50. The protocol:
Production of Human Full Length Hormone Sensitive Lipase-His^6
1) Cloning: cDNA was prepared from commercial human brain polyA+ RNA and used as a template in overlapping PCR to generate a full length human HSL ORF with a 3′-His6 tag. This full length insert was cloned into the pFast-BAC vector and the DNA-sequence of several single clones was verified. DNA from a correct full length clone with the 3′His6 tag was used to transform the E. coli strain DH10BAC. Resulting bacmid DNA was used to generate a titered baculovirus stock for protein generation. The sequence of the encoded HSL conforms to Swissprot entry Q05469, with the additional C-terminal His6-tag.
2) Protein purification: Culture: 5.5 L, High 5 cells expressing human full length HSL-His^6, 48 hr., containing 25 μM E-64. Cell count: […], 90% viable.
Cells were thawed. On ice, cells were suspended in Base Buffer containing 10% glycerol, 25 mM Tris-Cl, 300 mM NaCl, 10 mM imidazole, 10 mM 2-mercaptoethanol, 2 μg pepstatin/ml, 2 μg leupeptin/ml, 2 μg antipain/ml, pH 8.0 at 4° C. in a final volume of 475 ml with 3.75×10^7 cells/ml. […] was done at 3×30 sec., Lubrol PX was added to 0.2% final concentration followed by stirring for 15 min. at 4° C. and centrifugation at 25 k×g, 60 min., 4° C. Soluble proteins were mixed with 60 ml of pre-washed and equilibrated Ni-NTA Agarose (Qiagen 30210) followed by tumbling end-over-end, 45 min., 4° C., centrifugation 1000 rpm 5 min and letting resin settle 5 min. Supernatant was removed, the resin washed in the centrifuge vessel using 5 volumes of Base Buffer containing 0.2% Lubrol PX. Centrifugation was done again, then the supernatant discarded. The resin was poured onto a 0.8 μm membrane in a disposable filter unit (Nalge 450-0080), and washed with 5 volumes of Base Buffer containing 0.2% Lubrol PX. It was then washed with 30 volumes of Base Buffer containing 60 mM imidazole pH 7.5 at 4° C. The protein was eluted with 5 volumes of 25 mM Tris-Cl, 300 mM NaCl, 200 mM imidazole, 10 mM 2-mercaptoethanol, pH 7.5 at 4° C. by tumbling resin with buffer end-over-end, 30 min., 4° C. The resin was captured on a 0.2 μm membrane disposable filter unit (Millipore SCGP U02 RE) and the elute collected in the reservoir. The elute was concentrated using a 30 k MWCO centrifugal filter device (Sartorius Vivascience Vivacell 100, VC1022), to 20 ml. It was then dialyzed overnight at 4° C., two times against 2 L of 10% glycerol, 25 mM Tris-Cl, 300 mM NaCl, 0.2 mM EDTA, 0.2 mM DTT, pH 7.5 at 4° C. The protein was filtered using a 0.22 μm disposable filter unit (Millipore SCGP00525). The protein concentration was calculated from absorbance at 280 nm, using 280=0.67 cm-1 mg-1. Yield was 235 mg, total. The protein was stored at −80° C. Human Hormone-Sensitive Lipase (HSL) enzyme inhibition assay:
HSL enzyme activity was measured by a colorimetric assay using 2,3-dimercapto-1-propanol tributyrate (Aldrich, St. Louis, Mo.) as a substrate. Typically, 1.5 mM 2,3-dimercapto-1-propanol tributyrate (DMPT) in 100 mM MOPS, pH 7.2, 0.2 mg/ml fatty acid-free BSA was prepared by sonication at 4° C. to homogenous suspension. Test compounds (2 mM stock in DMSO) were diluted 3 fold in series in DMSO. Compound solutions were diluted 24 fold in 1.5 mM DMPT containing solution and 18 ul per well was added to 384-well microplates (Corning Costar). Twelve microliters per well of human HSL (15 ug/ml) was added and the reaction mixture was incubated at 37° C. for 20 minutes. Six microliters of 12 mM dithio-bis-(2-nitrobenzoic acid) (DTNB) in DMSO plus 1.2% SDS and 0.6% Triton X-100 were added and the mixture was incubated at room temperature for 15 minutes. Product production was monitored by reading absorbance at 405 nm on an Envision Reader (PerkinElmer Life and Analytical Sciences, Shelton, Conn.).
`CC(C)(C)c1ccc(NC(=O)C2(N)CCN(C(=O)Nc3ccc(OC(F)(F)F)cc3)CC2)cc1` [Example 86, 4-Amino-piperidine-1,4-dicarboxylic acid 4-[(4-tert-butyl-phenyl)-amide]1-[(4-trifluoromethoxy-phenyl)-amide]; hydrochloride]: the IC50 was 140 nM.

Turning to `CN(C(=O)C1(O)CCN(Cc2ccccc2F)CC1)c1ccc(OC(F)(F)F)cc1` [Example 67, 1-(2-Fluoro-benzyl)-4-hydroxy-piperidine-4-carboxylic acid methyl-(4-trifluoromethoxy-phenyl)-amide], the IC50 was 190 nM. For `CCc1ccc(NC(=O)C2(N)CCN(Cc3ccccc3F)CC2)cc1` [Example 153, 4-Amino-1-(2-fluoro-benzyl)-piperidine-4-carboxylic acid (4-ethyl-phenyl)-amide] the value was 170 nM; for `CC(C)(C)c1ccc(NC(=O)C2(O)CCN(C(=O)c3cc(F)ccc3F)CC2)cc1` [Example 43, 1-(2,5-Difluoro-benzoyl)-4-hydroxy-piperidine-4-carboxylic acid (4-tert-butyl-phenyl)-amide], 640 nM; for `CC(C)(C)c1ccc(NC(=O)C2(O)CCN(C(=O)c3ccc(F)cc3C(F)(F)F)CC2)cc1` [Example 42, 1-(4-Fluoro-2-trifluoromethyl-benzoyl)-4-hydroxy-piperidine-4-carboxylic acid (4-tert-butyl-phenyl)-amide], 600 nM. As for `CCN(C(=O)C1(O)CCN(S(=O)(=O)c2ccccc2F)CC1)c1ccc(OC(F)(F)F)cc1` [Example 75, 1-(2-Fluoro-benzenesulfonyl)-4-hydroxy-piperidine-4-carboxylic acid ethyl-(4-trifluoromethoxy-phenyl)-amide], the IC50 was 750 nM. With `CC(C)(C)CC(=O)N1CCC(O)(C(=O)Nc2ccc(OC(F)(F)F)cc2)CC1` [Example 51, 1-(3,3-Dimethyl-butyryl)-4-hydroxy-piperidine-4-carboxylic acid (4-trifluoromethoxy-phenyl)-amide] the figure was 810 nM; with `CC(C)c1ccc(NC(=O)C2(O)CCN(Cc3ccc(F)cc3)CC2)cc1` [Example 2, 1-(4-Fluoro-benzyl)-4-hydroxy-piperidine-4-carboxylic acid (4-isopropyl-phenyl)-amide], 270 nM.

On to `CC(C)CCC(=O)N1CCC(N)(C(=O)Nc2ccc(C(C)C)cc2)CC1` [Example 129, 4-Amino-1-(4-methyl-pentanoyl)-piperidine-4-carboxylic acid (4-isopropyl-phenyl)-amide], for which the IC50 was found to be 480 nM. For `CC(C)c1ccc(NC(=O)C2(O)CCN(C(=O)CC(C)(C)C)CC2)cc1` [Example 4, 1-(3,3-Dimethyl-butyryl)-4-hydroxy-piperidine-4-carboxylic acid (4-isopropyl-phenyl)-amide] the value was 720 nM; for `Cc1ccc(S(=O)(=O)N2CCC(N)(C(=O)Nc3ccc(OC(F)(F)F)cc3)CC2)cc1` [Example 80, 4-Amino-1-(toluene-4-sulfonyl)-piperidine-4-carboxylic acid (4-trifluoromethoxy-phenyl)-amide; hydrochloride], 50 nM; for `NC1(C(=O)Nc2cccc(C(F)(F)F)c2)CCN(S(=O)(=O)c2ccccc2Cl)CC1` [Example 91, 4-Amino-1-(2-chloro-benzenesulfonyl)-piperidine-4-carboxylic acid (3-trifluoromethyl-phenyl)-amide], 710 nM. With `CC(C)c1ccc(NC(=O)C2(N)CCN(C(=O)c3ccc(Cl)cc3)CC2)cc1` [Example 125, 4-Amino-1-(4-chloro-benzoyl)-piperidine-4-carboxylic acid (4-isopropyl-phenyl)-amide] the figure was 360 nM; with `CC(C)c1ccc(NC(=O)C2(O)CCN(Cc3ccccc3)CC2)cc1` [Example 1, 1-Benzyl-4-hydroxy-piperidine-4-carboxylic acid (4-isopropyl-phenyl)-amide], 460 nM; with `CC(C)c1ccc(NC(=O)C2(N)CCN(C(=O)Nc3ccc(C(C)(C)C)cc3)CC2)cc1` [Example 89, 4-Amino-piperidine-1,4-dicarboxylic acid 1-[(4-tert-butyl-phenyl)-amide]-4-[(4-isopropyl-phenyl)-amide]; hydrochloride], 120 nM. On to `CC(C)c1ccc(NC(=O)C2(N)CCN(S(=O)(=O)c3ccccc3F)CC2)cc1` [Example 118, 4-Amino-1-(2-fluoro-benzenesulfonyl)-piperidine-4-carboxylic acid (4-isopropyl-phenyl)-amide], for which the IC50 is 40 nM. With `Cc1ccc(S(=O)(=O)N2CCC(N)(C(=O)Nc3ccc(C(C)C)cc3)CC2)cc1` [Example 78, 4-Amino-1-(toluene-4-sulfonyl)-piperidine-4-carboxylic acid (4-isopropyl-phenyl)-amide; hydrochloride] the figure was 70 nM.

In the case of `CC(C)(C)c1ccc(NC(=O)N2CCC(N)(C(=O)Nc3ccc(C(C)(C)C)cc3)CC2)cc1` [Example 90, 4-Amino-piperidine-1,4-dicarboxylic acid bis-[(4-tert-butyl-phenyl)-amide]; hydrochloride], the IC50 was determined as 130 nM.

Regarding `CCc1ccc(NC(=O)C2(N)CCN(C(c3ccccc3)c3ccccc3)CC2)cc1` [Example 159, 4-Amino-1-benzhydryl-piperidine-4-carboxylic acid (4-ethyl-phenyl)-amide], the IC50 worked out at 150 nM. For `Cc1ccccc1CN1CCC(O)(C(=O)Nc2ccc(C(C)(C)C)cc2)CC1` [Example 46, 4-Hydroxy-1-(2-methyl-benzyl)-piperidine-4-carboxylic acid (4-tert-butyl-phenyl)-amide], the IC50 is 220 nM.
